# Measurements: patent US20060003027A1, “Composition and method for reducing side effects of indole-3-carbinol and derivatives” (priority 2004, published 2006)
# What was measured:
# [1] = test system: HPV-induced benign tumors of laryngeal tissue; conditions: mouse model; cited from earlier work
# mammary carcinogenesis = conditions: rat model; cited from earlier work
# [2] = test system: cervical or vaginal neoplasia; assay: Treatment of female patients with coccygeal-area pain and abnormal pap smear (pain, pap smear, biopsy); type: in vivo, human; conditions: I3C alone, 110 mg per dose twice daily; Example 1 patient
# Description: A patient, and 110 lbs. in weight, has complained of pain in the area of the coccygeal vertebra, which may reflect cervical inflammation, and/or cervical or vaginal neoplasia.
# (§1) This patient was administered a high dosage of I3C, specifically 110 mg/per dose, twice daily. […] A composition (composition 1) in accordance with the present invention was then given to this patient. Composition 1 is as set forth below:
# Composition 2 in accordance with the present invention was administered to the patient. Composition 2 is as set forth below:
# (§2) Composition 3 was then administered to this patient for a period of eight weeks.
# [3] = Side effects observed in treated patients (case reports); type: in vivo, human
# Description: as §1, §2
smiles,measurement,setting,value
"OCc1c[nH]c2ccccc12 [Composition I3C, Indole-3-carbinol]",growth of HPV-induced benign tumors of laryngeal tissue,[1],inhibits growth
same,inhibition of mammary carcinogenesis,mammary carcinogenesis,effective in inhibiting mammary carcinogenesis
same,pain in the area of the coccygeal vertebra,[2],relief from the pain
same,side effects experienced,"[3]; I3C alone, 110 mg per dose twice daily, about a week, patient, 110 lbs","headache, dizziness and fatigue"
same,undesirable side effects,"[3]; I3C at 200 mg/day and above 200 mg/day, some people of regular body weight","headache, dizziness, stomach disturbance, convulsion, vomiting, and fatigue"
